Source: article PMC11172862, “Mechanistic and Structural Insights on Difluoromethyl-1,3,4-oxadiazole Inhibitors of HDAC6” (International Journal of Molecular Sciences, 2024)
Where two headings read alike, the source gives them in different places.

What was measured:
[1] = target: T1, second catalytic domain of zebrafish HDAC6 (zHDAC6-CD2) (Danio rerio, UniProt F8W4B7); set-up: method as in PMID 36528061; details: included for comparison; ref [22]; read-out: HDACs IC50, zHDAC6-CD2; cited from earlier work
T1 construct: 8xHis-MBP (TEV-cleavable) (N, cleaved yes); made in house; host or cells: E. coli
T1 sequence (F8W4B7 440-798): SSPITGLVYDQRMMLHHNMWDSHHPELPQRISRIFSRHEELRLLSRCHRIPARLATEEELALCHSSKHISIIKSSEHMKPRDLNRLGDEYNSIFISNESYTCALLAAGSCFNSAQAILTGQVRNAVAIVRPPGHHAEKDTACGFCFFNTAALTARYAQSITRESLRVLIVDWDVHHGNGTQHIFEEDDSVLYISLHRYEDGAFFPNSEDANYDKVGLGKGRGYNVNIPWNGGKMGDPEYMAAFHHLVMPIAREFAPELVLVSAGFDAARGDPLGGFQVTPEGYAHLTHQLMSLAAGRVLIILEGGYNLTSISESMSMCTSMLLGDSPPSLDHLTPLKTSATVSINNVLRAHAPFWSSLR

Human HDAC1 [2] = target: T2, Human HDAC1 (Homo sapiens, UniProt Q13547); set-up: method as in PMID 36528061; details: included for comparison; ref [22]; read-out: HDACs IC50, HDAC1; cited from earlier work
T2 construct: purchased BPS Bioscience 50051
T2 sequence (Q13547 whole entry): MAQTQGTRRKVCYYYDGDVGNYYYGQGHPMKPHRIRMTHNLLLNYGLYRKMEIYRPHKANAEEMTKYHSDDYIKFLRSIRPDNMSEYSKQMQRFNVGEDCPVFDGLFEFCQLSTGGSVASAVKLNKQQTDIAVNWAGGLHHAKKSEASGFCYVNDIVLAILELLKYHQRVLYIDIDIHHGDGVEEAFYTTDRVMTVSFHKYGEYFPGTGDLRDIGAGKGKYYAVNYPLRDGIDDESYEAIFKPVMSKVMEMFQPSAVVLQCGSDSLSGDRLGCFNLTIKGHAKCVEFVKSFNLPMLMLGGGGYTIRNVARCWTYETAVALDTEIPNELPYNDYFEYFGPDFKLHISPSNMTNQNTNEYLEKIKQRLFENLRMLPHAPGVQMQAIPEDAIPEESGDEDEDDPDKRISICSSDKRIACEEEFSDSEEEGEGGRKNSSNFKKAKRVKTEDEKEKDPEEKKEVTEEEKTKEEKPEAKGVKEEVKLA

human HDAC6 [3] = target: T3, human HDAC6 (Homo sapiens, UniProt Q9UBN7); set-up: method as in PMID 36528061; details: included for comparison; ref [22]; read-out: HDACs IC50, HDAC6; cited from earlier work
T3 construct: purchased BPS Bioscience 50006
T3 sequence (Q9UBN7 1-1215): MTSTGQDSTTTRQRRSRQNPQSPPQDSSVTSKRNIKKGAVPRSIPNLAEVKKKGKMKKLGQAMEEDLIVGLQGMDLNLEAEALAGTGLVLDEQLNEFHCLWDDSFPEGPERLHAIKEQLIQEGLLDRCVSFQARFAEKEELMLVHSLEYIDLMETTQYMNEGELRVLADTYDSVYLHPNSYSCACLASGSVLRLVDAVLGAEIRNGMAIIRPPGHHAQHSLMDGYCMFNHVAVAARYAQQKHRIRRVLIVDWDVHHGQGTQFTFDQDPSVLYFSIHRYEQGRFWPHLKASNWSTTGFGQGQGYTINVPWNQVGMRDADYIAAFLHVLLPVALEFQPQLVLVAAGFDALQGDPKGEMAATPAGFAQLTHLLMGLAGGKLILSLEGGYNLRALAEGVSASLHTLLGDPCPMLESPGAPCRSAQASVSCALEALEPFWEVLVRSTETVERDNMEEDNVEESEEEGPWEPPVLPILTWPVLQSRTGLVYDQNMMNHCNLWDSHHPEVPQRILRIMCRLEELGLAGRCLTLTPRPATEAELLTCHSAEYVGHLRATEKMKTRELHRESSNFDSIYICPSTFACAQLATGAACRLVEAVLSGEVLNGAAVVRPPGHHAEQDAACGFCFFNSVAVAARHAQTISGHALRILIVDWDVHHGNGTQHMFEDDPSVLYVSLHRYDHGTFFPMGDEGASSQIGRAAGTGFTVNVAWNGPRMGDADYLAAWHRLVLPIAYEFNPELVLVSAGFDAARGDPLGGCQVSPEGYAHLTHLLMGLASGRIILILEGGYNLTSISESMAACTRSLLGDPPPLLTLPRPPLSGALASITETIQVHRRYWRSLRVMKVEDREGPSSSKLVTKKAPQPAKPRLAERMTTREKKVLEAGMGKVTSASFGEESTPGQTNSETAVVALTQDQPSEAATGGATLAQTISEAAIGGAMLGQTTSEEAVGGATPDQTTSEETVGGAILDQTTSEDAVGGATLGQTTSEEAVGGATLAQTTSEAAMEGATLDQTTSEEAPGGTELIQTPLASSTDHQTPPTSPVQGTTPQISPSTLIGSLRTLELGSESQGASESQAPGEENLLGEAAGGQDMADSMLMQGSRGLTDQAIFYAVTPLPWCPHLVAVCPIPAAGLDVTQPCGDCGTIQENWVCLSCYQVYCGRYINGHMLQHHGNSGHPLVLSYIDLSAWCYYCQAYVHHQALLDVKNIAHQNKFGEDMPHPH

zHDAC6-CD2 = target: T4, zHDAC6-CD2 (Danio rerio, UniProt F8W4B7); assay: LC-MS time course of DFMO hydrolysis by zHDAC6-CD2; format: biochemical, zebrafish; details: absence of competitor
T4 construct: 8xHis-MBP (TEV-cleavable) (N, cleaved yes); made in house; host or cells: E. coli
T4 sequence (F8W4B7 440-798): T1 sequence (F8W4B7 440-798)
Procedure: In order to achieve a fast and sufficient conversion of DFMO to DFAcH before the addition of the competitor, and to minimize its effect on the first hydrolysis step, ITF3756 was added after a very short DFMO–enzyme pre-incubation (1 min). Subsequently, at each time point (Figure 4), an aliquot of the reaction mixture was mixed with acetonitrile to unfold the protein and quench the enzymatic activity. Each aliquot was analyzed by liquid LC-MS to determine the compound concentrations.
Experiments like those shown in panel A and C were carried out in the presence of 100 μM ITF3756, which was added after 1 min of ITF5924-enzyme (B) or ITF7209-enzyme (D) pre-incubation. All the experiments were carried out in triplicate. The lines simply join the average values of the experimental points. The incomplete recovery could be attributed to the relatively high enzyme concentration, possibly resulting in coprecipitation phenomena upon the addition of acetonitrile. […]
(§1) obtained in the absence of inhibitor. Such inhibition data were fitted in the GraphPad Prism software (version 10.2.2, La Jolla, CA, USA) using nonlinear regression analysis.
(§2) Eq. 1 P = v௦ ∙t + (vi − vs )[1 − exp(−kobs ∙t)] / kobs
(§3) In Eq. 1, P is the product concentration, expressed as fluorescence intensity, and t is the reaction time (in minutes) (7). For the determination of IC50 values, vo for fast-on inhibitors or vs for slow-on compounds were used to calculate the inhibition, as percentage with respect to the value obtained in the absence of inhibitor. Such inhibition data were fitted in GraphPad Prism software (version 10.2.2, La Jolla, CA, USA) using nonlinear regression analysis. […]
(§4) kobs values on inhibitor concentration was used to determine the mechanism of inhibition. “One-step” or a “two-step” (or “induced-fit) processes are the most common mechanisms of slow binding inhibition (Figure S2) and the resulting “kobs plots” should be linear for mechanism A and hyperbolic […]

[4] = target: T1, second catalytic domain of zebrafish HDAC6 (zHDAC6-CD2); assay: Fluorometric HDAC activity assay (Fluor de Lys Green), zHDAC6-CD2; format: biochemical; details: for IC50: 25 °C, 3 µM Fluor de Lys Green, read-out: HDACs IC50, zHDAC6-CD2
Procedure: (§5) Optimized fluorometric enzymatic assays were used as previously reported (5, 6). Briefly, the time-course of the reaction was monitored at 25 °C in HDAC assay buffer [25 mM Tris/HCl, pH 8.0, 130 mM NaCl, 0.05% Tween-20, 10% Glycerol, 1 mg/mL bovine serum albumin (BSA), 0.5 mM tris(2-carboxyethyl)phosphine (TCEP) and 1% DMSO]. Human HDAC1 (Catalog 50051, BPS Bioscience, San Diego, CA, USA), human HDAC6 (Catalog 50006, BPS Bioscience, San Diego, CA, USA) and the second catalytic domain of zebrafish HDAC6 (zHDAC6-CD2) were used at catalytic concentrations of 710 pM, 62.5-125 pM and 0.12 nM, respectively. The Fluor de Lys Green substrate (Enzo Life Sciences, Farmingdale, New York, USA) was included at a concentration close to the Km value, 3 µM for HDAC6 forms and 25 µM for HDAC1. For fast binding inhibitors, the initial velocity (vo) was calculated as (∆F/min) from the slope of the straight line fitting the data points. In the case […]
(§6) velocity (vi), the steady-state velocity at long reaction times (vs), and the apparent first-order rate constant (kobs). In Eq 1, P is the product concentration, expressed as fluorescence intensity and t is the reaction time (in minutes) (7). All progress curves are generated by using GraphPad Prism software (version 10.2.2, La Jolla, CA, USA). For IC50 determination, vo for fast-on inhibitors or vs for slow-on compounds were used to calculate the inhibition, as percentage with respect to the value
(1 picture or pasted object on this page, not shown here) […]
as §1, §2, §3, §4
to equation 2, assuming the validity of mechanism B, where Ki is the dissociation constant of the initial EI complex, whereas k2 and k-2 are the rate constants describing the formation of the tight EI* complex. IC50 reflects the dissociation constant of the EI* complex (Ki*). […]
Samples were kept frozen at -80 °C until the LC-HRMS analysis. The experiment was performed in […]
(ITF6715, ITF7738) and hydrazide (ITF6712, ITF7739) derivatives in the samples was performed with respect to calibration curves obtained with varying concentrations of each compound. Raw data were then imported into GraphPad Prism (version 10.2.2, La Jolla, CA, USA) to generate Figure 4.
The LC-HRMS analysis was carried out using a Vanquish Flex UHPLC (Thermo Fisher Scientific, Waltham, Massachusetts, USA) and a high-resolution mass spectrometer Orbitrap QExactive Focus (Thermo Fisher Scientific, Waltham, Massachusetts, USA), equipped with a Heated Electrospray Ionization, operated in positive mode. A Full Scan analysis was set in the m/z range 50-500 amu. A XSelect HSS T3 50x2.1 mm, 2.5 µm chromatographic column (Waters, Milford, Massachusetts, USA) was used. Mobile phase A consisted of 0.1% formic acid in water and mobile phase B in 0.1% formic acid in acetonitrile. The flow rate was set to 0.5 mL/min, with a gradient program from 3 to 20% B in 3 minutes. The software Chromeleon CDS (version 7.3.2, Thermo Fisher Scientific, Waltham, Massachusetts, USA) was used for acquisition, processing, and signal integration. […]

human HDAC6 [5] = target: T3, human HDAC6; assay: Fluorometric HDAC activity assay (Fluor de Lys Green), human full-length HDAC6; format: biochemical; details: for IC50: human full-length HDAC6, 25 °C, 3 µM Fluor de Lys Green, read-out: HDACs IC50, HDAC6
Procedure: as §5
as §6, with “value […]” for “value”
as §1, §2, §3, §4
to equation 2, assuming the validity of mechanism B, where Ki is the dissociation constant of the […]

Human HDAC1 [6] = target: T2, Human HDAC1; assay: Fluorometric HDAC activity assay (Fluor de Lys Green), human HDAC1; format: biochemical; details: 25 °C, 25 µM Fluor de Lys Green; read-out: HDACs IC50, HDAC1
Procedure: as §5
velocity (vi), the steady-state velocity at long reaction times (vs), and the apparent first-order rate constant (kobs). In Eq 1, P is the product concentration, expressed as fluorescence intensity and t is the reaction time (in minutes) (7). […]
In Eq. 1, P is the product concentration, expressed as fluorescence intensity, and t is the reaction time (in minutes) (7). […]

[7] = 5 µM DFMO, 5 µM zHDAC6-CD2, 25 °C

Row | Compound | IC50 [1] | IC50 (Human HDAC1 [2]) | IC50 (human HDAC6 [3]) | IC50 [4] | IC50 (human HDAC6 [5]) | IC50 (Human HDAC1 [6]) | also measured
1 | O=C(NNC(=O)C(F)F)c1ccc(Cn2cc(-c3ccc(NC4=NCCN4)cc3)nn2)cc1 [ITF6715] | 2.3 µM | > 100 µM | 1.6 µM | – | – | – | –
2 | NNC(=O)c1ccc(Cn2cc(-c3ccc(NC4=NCCN4)cc3)nn2)cc1 [ITF6712] | – | > 100 µM | 0.33 µM | – | – | – | Amount of hydrazide product detectable (zHDAC6-CD2; hydrolysis of 5 µM ITF5924 by 5 µM zHDAC6-CD2, 25 °C): 13%
3 | CC(C)(C)c1cn(Cc2ccc(-c3nnc(C(F)F)o3)s2)nn1 [ITF7209] | – | – | – | 0.0067 ± 0.0004 µM | – | – | Mode of inhibition ([4]; zHDAC6-CD2, progress curves): slow binding inhibitor; k2 (rate constant, formation of the tight EI* complex) ([4]; zHDAC6-CD2, fit of kobs to Eq. 2): 0.86 ± 0.02 min⁻¹; Ki ([4]; zHDAC6-CD2, fit of kobs to Eq. 2, induced-fit model, read-out: Ki (dissociation constant of the initial EI complex)): 0.98 ± 0.04 µM; Rate of DFMO consumption compared to ITF5924 (zHDAC6-CD2; [7]): slower rate of DFMO consumption; k2 (rate constant, formation of the tight EI* complex) (human HDAC6 [5]; human HDAC6, fit of kobs to Eq. 2): 0.52 ± 0.01 min⁻¹; Mode of inhibition (human HDAC6 [5]; human full-length HDAC6, progress curves): slow binding inhibitor
4 | CC(C)(C)c1cn(Cc2ccc(C(=O)NNC(=O)C(F)F)s2)nn1 [ITF7738] | – | – | – | 72 µM | > 100 µM | > 100 µM | –
5 | CC(C)(C)c1cn(Cc2ccc(C(=O)NN)s2)nn1 [ITF7739] | – | – | – | 1 µM | 5.1 µM | > 100 µM | –
6 | FC(F)c1nnc(-c2ccc(Cn3cc(-c4ccc(NC5=NCCN5)cc4)nn3)cc2)o1 [ITF5924] | 0.0078 ± 0.0004 µM | > 100 µM | 0.0077 ± 0.0003 µM | – | – | – | Time after which DFMO substantially disappeared (zHDAC6-CD2; [7]): 10 min
